Earlier results on 50 substances are cited in paper PMC8198792, “Prediction of Anticancer Peptides with High Efficacy and Low Toxicity by Hybrid Model Based on 3D Structure of Peptides” (International Journal of Molecular Sciences, 2021).

Like-named read-outs stand apart in the source and are kept apart here.

This series deals with cancer cell lines. Further details: method as in 6 sources, ref CancerPPD [45] and SATPdb ||| ref CancerPPD/SATPdb ||| ref CancerPPD, SATPdb, Swissprot (PDB) ||| ref CancerPPD/SATPdb/Swissprot(PDB) ||| ref CancerPPD / SATPdb ||| ... Conditions: cited from earlier work. The text has this: Supplement ijms-22-05630-s001.zip/ACPs(seguence).xlsx, sheet "D1" | column: Activity || Supplement ijms-22-05630-s001.zip/ACPs(seguence).xlsx, sheet "D2" | column: Activity || Supplement ijms-22-05630-s001.zip/ACPs(seguence).xlsx, sheet "D3" | column: Activity || (+ 2 further places)

Setting [1] is: ACPs dataset D1, 1 = ACP (positive), 0 = non-ACP (negative), label taken from databases, ref CancerPPD [45] and SATPdb.
Setting [2] is: ACPs dataset D4 (sheet "D4"), label 1 = ACP (CancerPPD ID), 0 = non-ACP (non-anticancer AMP, SATPdb ID), ref CancerPPD [45] and SATPdb.
The mark [3] stands for this setting: ACPs dataset D3 (supplement sheet "D3"), 1 = ACP, 0 = non-ACP, ref CancerPPD [45] and SATPdb.
Where [4] appears, read: ACPs dataset D5 (sheet "D5"), label 1 = ACP (positive set), 0 = non-ACP (negative set), ref CancerPPD [45] and SATPdb.
Where [5] appears, read: ACPs dataset D3 (sheet "D3"), label 1 = ACP, 0 = non-ACP, ref CancerPPD/SATPdb.
[6] abbreviates: ACPs dataset D4 (sheet "D4"), label 1 = ACP, 0 = non-ACP, ref CancerPPD / SATPdb.
Where [7] appears, read: ACPs dataset D5, sheet "D5", label 1 = ACP, 0 = non-ACP, ref CancerPPD [45] and SATPdb.
Where [8] appears, read: ACPs dataset sheet D2, 1 = ACP (CancerPPD/SATPdb ID), 0 = non-ACP (Swissprot/PDB ID), ref CancerPPD, SATPdb, Swissprot (PDB).
Where [9] appears, read: ACPs dataset D1, label 1 = ACP, 0 = non-ACP (non-anticancer AMPs from SATPdb), ref CancerPPD/SATPdb.
Setting [10] is: ACPs dataset D4 (sheet "D4"), label 1 = ACP, experimentally validated ACPs, ref CancerPPD [45] and SATPdb.
Setting [11] is: ACPs dataset D5 (sheet "D5"), label 1 = ACP (positive set), sequences with CancerPPD/SATPdb ID, ref CancerPPD, SATPdb.
Where [12] appears, read: ACPs dataset D2 (supplement ACPs(seguence).xlsx, sheet D2), dataset label 1/0 (ACP / non-ACP), entries identified by Swissprot(PDB ID), ref CancerPPD/SATPdb/Swissprot(PDB).

Take “AEVAPAPAAAAPAKAPKKKAAAKPKKAGPS [satpdb11318]”: the Activity reads like this: under setting [1], 0; under setting [2], 0.

As to MFFSSKKCKTVSKTFRGPCVRNA [satpdb11127], the Activity is, setting by setting: under setting [1], 0; under setting [2], 0.

GLFKVIKKVASVIGGL [compound 4147]: the Activity runs as follows: under setting [3], 1; under setting [2], 1; under setting [4], 1.

In the case of KNWKAILKHIIK [satpdb13480], the Activity is listed as 0 under setting [5], 0 under setting [6] and 0 under setting [7].

In the case of LLKKLLKKLLKK [satpdb13272], the Activity is on record as 0 under setting [5], 0 under setting [6] and 0 under setting [7].

On to “KWKSFLKTFKSlKKTVLHTlLKAISS [compound 3756]”, for which the Activity under setting [3] is given as 1, the Activity under setting [2] is on record as 1 and the Activity under setting [4] is listed as 1.

As for “KWKSFlKTFKSlKKTVLHTLLKAISS [compound 3770]”, the Activity under setting [3] is reported as 1, the Activity under setting [2] is on record as 1 and the Activity under setting [4] is 1.

Consider “ERRCPRILKQ CKRDSDCPGE CICMAHGFCG [1EWU model - I 1-30]”, for which the Activity under setting [4] was 0 and the Activity under setting [8] was 0.

In the case of GFGMALOLLOOVL [compound 3597], the Activity under setting [3] is on record as 1, the Activity under setting [2] was 1 and the Activity under setting [4] is listed as 1.

As to PKLlKTFlSKWIG [satpdb12561], the Activity is reported as 0 under setting [9] and 0 under setting [2].

Consider FLGALAKIISGIF [satpdb11200], for which the Activity runs as follows: under setting [1], 0; under setting [2], 0.

As for “TNYGNGVGVPDAIMAGIIKLIFIFNIRQGYNFGKKAT [satpdb11292]”, the Activity runs as follows: under setting [1], 0; under setting [2], 0.

Consider GFGMALRLLRRVL [compound 3598], for which the Activity reads like this: under setting [3], 1; under setting [2], 1; under setting [4], 1.

GIGKFLHAAKKFAKAFVAEIMNS [compound 1354]: the Activity is reported as 1 under setting [3], 1 under setting [2] and 1 under setting [4].

With KAAKKAWKWAKKAAKWAKKAA [compound 4479], the Activity under setting [1] is 1, the Activity under setting [10] was 1, the Activity under setting [11] is 1 and the Activity under setting [8] is 1.

With FLGGLMKAFPAIICAVTKKC [satpdb13214], the Activity is listed as 0 under setting [9] and 0 under setting [6].

Regarding “WYVKKCLNDVGICKKKCKPEEMHVKNGWAMCGKGRDCCVPAD [satpdb13381]”, the Activity is given as 0 under setting [9] and 0 under setting [6].

With GLFKVIKKVAKVIKKL [compound 4156], the Activity is 1 under setting [3], 1 under setting [2] and 1 under setting [4].

As for SPWDIASVTAGGVQKRS [satpdb27667], the Activity is recorded as 1 under setting [1], 1 under setting [10], 1 under setting [11] and 1 under setting [8].

For the substance “MITDVQLAIFANMLGVSLFLLVVLYHYVAVNNPKKQE [2LAT NMR - A 1-37]”, the Activity under setting [12] is listed as 0 and the Activity under setting [4] was 0.

As for ALWKTLLKKVLKAAAK [satpdb14616], the Activity by setting is: under setting [5], 0; under setting [6], 0; under setting [7], 0.

For “PIEVNDDCMACEACVEICPDVFEMNEEGDKAVVINPDSDLDCVEEAIDSCPAEAIVRS [1F2G;1FXD X-ray 1.70 A 1-58]”, the Activity is, setting by setting: under setting [12], 0; under setting [7], 0.

Regarding “EGVRNHVTCRINRGFCVPIRCPGRTRQIGTCFGPRIKCCRSW [satpdb13124]”, the Activity by setting is: under setting [9], 0; under setting [6], 0.

On to FFGTALKIAANVLPTAICKILKKC [satpdb13355], for which the Activity runs as follows: under setting [9], 0; under setting [6], 0.

Regarding “DIEDFYTSETCPYKNDSQLAWDTCSGGTGNCGTVCCGQCFSFPVSQSCAGMADSNDCPNA [2NSW NMR - A 1-60]”, the Activity was 0 under setting [12] and 0 under setting [7].

As to EDGLHPRLCSC [satpdb11408], the Activity runs as follows: under setting [9], 0; under setting [2], 0.

For the substance “ACYCRIPACLAGERRYGTCFYMGRVWAFCC [satpdb12594]”, the Activity runs as follows: under setting [9], 0; under setting [2], 0.

Regarding “NVLLSPLSVATALSALSLGAEQRTES [satpdb18073]”, the Activity reads like this: under setting [1], 1; under setting [10], 1; under setting [11], 1; under setting [8], 1.

Regarding “GGLKKLGKKLEGVGKRVFKASEKALPVLTGYKAIG [satpdb10158]”, the Activity is recorded as 0 under setting [1] and 0 under setting [2].

For GKWKKILGHLIR [compound 3645], the Activity runs as follows: under setting [3], 1; under setting [2], 1; under setting [4], 1.

For FLPFIARLAAKVFPSIICSVTKKC [satpdb10560], the Activity reads like this: under setting [1], 0; under setting [2], 0.

Regarding “GCPRILMRCK QDSDCLAGCV CGPNGFCGSP [1H9H X-ray 1.50 I 1-30]”, the Activity runs as follows: under setting [4], 0; under setting [8], 0.

As for “LGQSAASAHHAYIVLAIENSFMTASKKK [compound 4207]”, the Activity by setting is: under setting [1], 1; under setting [10], 1; under setting [11], 1; under setting [8], 1.

As to “MAKWRCKICGYIYDEDEGDPDNGISPGTKFEDLPDDWVCPLCGAPKSEFERIE [1YK5 X-ray 1.79 A/B/C/D 1-53]”, the Activity reads like this: under setting [12], 0; under setting [7], 0.

For GCSRWIIGIHGQICRD [satpdb12437], the Activity reads like this: under setting [9], 0; under setting [2], 0.

As for “GIPCGESCVWIPCISAAIGCSCKNKVCYRN [satpdb12462]”, the Activity under setting [9] is 0 and the Activity under setting [2] is reported as 0.

On to FLPIIASVAANVFSKIFCAISKKC [satpdb10458], for which the Activity is reported as 0 under setting [1] and 0 under setting [2].

GIIKKIIKKIIKKI [compound 2840]: the Activity is, setting by setting: under setting [3], 1; under setting [2], 1; under setting [4], 1.

For KGRGKRRREKQRPCDKPRR [satpdb15140], the Activity is recorded as 1 under setting [1], 1 under setting [10], 1 under setting [11] and 1 under setting [8].

For the substance LGGIVSAVKKIVDFLG [compound 1903], the Activity is, setting by setting: under setting [3], 1; under setting [2], 1; under setting [4], 1.

In the case of FVDLKKIANIINSIF [compound 2851], the Activity under setting [3] was 1, the Activity under setting [2] was 1 and the Activity under setting [4] is listed as 1.

Take GLFAVIKKVASVIKKL [compound 4111]: the Activity is 1 under setting [3], 1 under setting [2] and 1 under setting [4].

As for VSRRRRRRGGRRRR [satpdb11057], the Activity under setting [1] is 0 and the Activity under setting [2] is reported as 0.

As to GMWSKILGHLKR [compound 3637], the Activity under setting [3] was 1, the Activity under setting [2] is listed as 1 and the Activity under setting [4] is listed as 1.

On to KWKLFKKIGIGKFKLAKKF [compound 1206], for which the Activity under setting [3] was 1, the Activity under setting [2] is reported as 1 and the Activity under setting [4] is listed as 1.

For the substance FKLFKKIPKFLHLAKKF [compound 1124], the Activity under setting [3] is 1, the Activity under setting [10] is recorded as 1 and the Activity under setting [11] was 1.

As for “LCNERPSQTWSGNCGNTAHCDKQCQDWEKASHGACHKRENHWKCFCYFNC [1BK8 NMR - A 1-50]”, the Activity under setting [12] is reported as 0 and the Activity under setting [4] is on record as 0.

Turning to “kWkSFLkTFkSLKkTVLHTLLkAISS [compound 1231]”, the Activity is, setting by setting: under setting [3], 1; under setting [2], 1; under setting [4], 1.

“KDCKRESNTFPGICITKPPCRKACIREKFTDGHCSKILRRCLCTKPC [5KK4 X-ray 1.70 A/B/C/D/E/F 1-47]”: the Activity runs as follows: under setting [12], 0; under setting [4], 0.

Regarding KIKLFKKWPKFLHLAKKF [satpdb14419], the Activity is on record as 0 under setting [5], 0 under setting [6] and 0 under setting [7].
